Data reported in article PMC7263640 (Journal of visualized experiments : JoVE, 2019).

Target: T1, Olfr1377 (Mus musculus, UniProt B2RQ46)
T1 sequence (B2RQ46 1-307): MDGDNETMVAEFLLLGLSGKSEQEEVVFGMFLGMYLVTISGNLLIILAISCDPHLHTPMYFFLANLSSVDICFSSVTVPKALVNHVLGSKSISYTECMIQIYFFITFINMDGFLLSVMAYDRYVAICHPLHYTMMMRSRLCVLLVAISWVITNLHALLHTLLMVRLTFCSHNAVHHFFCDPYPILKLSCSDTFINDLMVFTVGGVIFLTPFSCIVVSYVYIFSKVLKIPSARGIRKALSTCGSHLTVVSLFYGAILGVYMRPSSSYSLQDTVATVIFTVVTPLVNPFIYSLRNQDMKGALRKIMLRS
Assay: GloSensor cAMP luminescence in Hana3A cells, vapor-phase odorant
Assay type: cell-based

Which EC50 does the source give for `CC(=O)c1ccccc1` [acetophenone] here?
The EC50 was 161 µM.
